“And” between values parts separate entries of the source, which are not always exact repeats. Equal values may be shown once. Blank lines part the entries; values can stand above or below the compound they belong to.
Test system: 168753-222-R-J1-PDC complex spheroid viability
Assay: Anticancer human tumor 168753-222-R-J1-PDC patient-derived bladder carcinoma cell line growth inhibition [CLK]
Conditions: for viability, T/C: stronger effect = lower value
Procedure, shortened: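 Multi-cell-type spheroids combined patient-derived tumor cells with HUVEC endothelial cells and human mesenchymal stem cells. Paired agents were dosed in half-log steps down from about clinical Cmax, or from 10 microM where Cmax was unknown.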

[1] = curve of first compound, second compound 0.0316 µM
[2] = curve of first compound, second compound 0.1 µM
[3] = curve of first compound, second compound 0.316 µM
[4] = curve of first compound, second compound 1 µM
[5] = curve of first compound, second compound 3.16 µM
[6] = curve of first compound, second compound 10 µM
[7] = second compound 0.0316 µM, first compound 0.0316 µM
[8] = second compound 0.0316 µM, first compound 0.1 µM
[9] = second compound 0.0316 µM, first compound 0.316 µM
[10] = second compound 0.0316 µM, first compound 1 µM
[11] = second compound 0.0316 µM, first compound 3.16 µM
[12] = second compound 0.0316 µM, first compound 10 µM
[13] = second compound 0.1 µM, first compound 0.0316 µM
[14] = second compound 0.1 µM, first compound 0.1 µM
[15] = second compound 0.1 µM, first compound 0.316 µM
[16] = second compound 0.1 µM, first compound 1 µM
[17] = second compound 0.1 µM, first compound 3.16 µM
[18] = second compound 0.1 µM, first compound 10 µM
[19] = second compound 0.316 µM, first compound 0.0316 µM
[20] = second compound 0.316 µM, first compound 0.1 µM
[21] = second compound 0.316 µM, first compound 0.316 µM
[22] = second compound 0.316 µM, first compound 1 µM
[23] = second compound 0.316 µM, first compound 3.16 µM
[24] = second compound 0.316 µM, first compound 10 µM
[25] = second compound 1 µM, first compound 0.0316 µM
[26] = second compound 1 µM, first compound 0.1 µM
[27] = second compound 1 µM, first compound 0.316 µM
[28] = second compound 1 µM, first compound 1 µM
[29] = second compound 1 µM, first compound 3.16 µM
[30] = second compound 1 µM, first compound 10 µM
[31] = second compound 3.16 µM, first compound 0.0316 µM
[32] = second compound 3.16 µM, first compound 0.1 µM
[33] = second compound 3.16 µM, first compound 0.316 µM
[34] = second compound 3.16 µM, first compound 1 µM
[35] = second compound 3.16 µM, first compound 3.16 µM
[36] = second compound 3.16 µM, first compound 10 µM
[37] = second compound 10 µM, first compound 0.0316 µM
[38] = second compound 10 µM, first compound 0.1 µM
[39] = second compound 10 µM, first compound 0.316 µM
[40] = second compound 10 µM, first compound 1 µM
[41] = second compound 10 µM, first compound 3.16 µM
[42] = second compound 10 µM, first compound 10 µM
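Note: viability measured after seven days of drug exposure.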
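Throughout, for viability, T/C: luminescence signal used as surrogate for viable cell amount; 100% = DMSO vehicle control wells.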

SMILES: CC(Nc1ccc2c(c1)OCCn1cc(N3C(=O)OCC3C(F)F)nc1-2)C(N)=O (configuration not stated) + CN1CCN(c2cc(C(=O)Nc3cc4cc(-c5cnn(C)c5)ccc4cn3)ccn2)CC1
IC50 [1]: 65.7 nM
IC50 [2]: < 31.6 nM
IC50 [3]: < 31.6 nM
IC50 [4]: < 31.6 nM
IC50 [5]: < 31.6 nM
IC50 [6]: < 31.6 nM
viability, T/C [7]: 72.8%
viability, T/C [8]: 37%
viability, T/C [9]: 15%
viability, T/C [10]: 12.5%
viability, T/C [11]: 9.81%
viability, T/C [12]: 9.9%
viability, T/C [13]: 41.8%
viability, T/C [14]: 18.2%
viability, T/C [15]: 12.3%
viability, T/C [16]: 8.91%
viability, T/C [17]: 7%
viability, T/C [18]: 7.78%
viability, T/C [19]: 15.9%
viability, T/C [20]: 10.2%
viability, T/C [21]: 7.13%
viability, T/C [22]: 1.63%
viability, T/C [23]: 0.95%
viability, T/C [24]: 0.77%
viability, T/C [25]: 0.37%
viability, T/C [26]: 0.22%
viability, T/C [27]: 0.1%
viability, T/C [28]: 0.05%
viability, T/C [29]: 0.08%
viability, T/C [30]: 0.08%
viability, T/C [31]: 0.12%
viability, T/C [32]: 0.1%
viability, T/C [33]: 0.35%
viability, T/C [34]: 0.06%
viability, T/C [35]: 2.39%
viability, T/C [36]: 0.59%
viability, T/C [37]: 0.05%
viability, T/C [38]: 0.11%
viability, T/C [39]: 1.89%
viability, T/C [40]: 0.11%
viability, T/C [41]: 0.27%
viability, T/C [42]: 0.33%

SMILES: NC(=O)C(=Cn1cnc(-c2cc(C(F)(F)F)cc(C(F)(F)F)c2)n1)c1cncnc1
viability, T/C (compound 0.00949 µM): 102% and 101%
viability, T/C (compound 0.03 µM): 76% and 95.7%
viability, T/C (compound 0.0949 µM): 52.8% and 83.2%
viability, T/C (compound 0.3 µM): 48.1% and 84.1%
viability, T/C (compound 0.949 µM): 41.1% and 68.7%
viability, T/C (compound 3 µM): 26.5% and 52%

IC50 [1]: 975 nM
IC50 [2]: 629 nM
IC50 [3]: 157 nM
IC50 [4]: < 31.6 nM
IC50 [5]: < 31.6 nM
IC50 [6]: < 31.6 nM
SMILES: Nc1ccn(C2OC(CO)C(O)C2(F)F)c(=O)n1 (configuration not stated) + CNC(=O)c1ccc(Nc2nc(OC3CCCC3)c3c(-c4ccc5nc(C)oc5c4)c[nH]c3n2)c(OC)c1
viability, T/C [7]: 95.2%
viability, T/C [8]: 73.2%
viability, T/C [9]: 48.7%
viability, T/C [10]: 57.2%
viability, T/C [11]: 51.2%
viability, T/C [12]: 37.9%
viability, T/C [13]: 88.4%
viability, T/C [14]: 75.7%
viability, T/C [15]: 50.3%
viability, T/C [16]: 49.9%
viability, T/C [17]: 34.2%
viability, T/C [18]: 25.4%
viability, T/C [19]: 84.2%
viability, T/C [20]: 64.5%
viability, T/C [21]: 28%
viability, T/C [22]: 17.1%
viability, T/C [23]: 26.8%
viability, T/C [24]: 22.1%
viability, T/C [25]: 43.5%
viability, T/C [26]: 18.9%
viability, T/C [27]: 17.9%
viability, T/C [28]: 16.4%
viability, T/C [29]: 16.9%
viability, T/C [30]: 17.4%
viability, T/C [31]: 21%
viability, T/C [32]: 18.4%
viability, T/C [33]: 18%
viability, T/C [34]: 16.8%
viability, T/C [35]: 16.4%
viability, T/C [36]: 15.5%
viability, T/C [37]: 18.2%
viability, T/C [38]: 18.4%
viability, T/C [39]: 17.4%
viability, T/C [40]: 15.4%
viability, T/C [41]: 17.1%
viability, T/C [42]: 16.2%

IC50 (curve of compound): > 10000 nM
SMILES: O=c1[nH]cc(F)c(=O)[nH]1
viability, T/C (compound 0.0316 µM): 93.5% and 101%
viability, T/C (compound 0.1 µM): 102% and 107%
viability, T/C (compound 0.316 µM): 88% and 104%
viability, T/C (compound 1 µM): 109% and 112%
viability, T/C (compound 3.16 µM): 67.9% and 113%
viability, T/C (compound 10 µM): 53.5% and 93.2%

Reference: PubChem BioAssay AID2060626 (Molecular Pharmacology Branch, DTP, NCI, 2025)
